One experiment deals with HCT116 cells. Description: MTT assay. As to conditions: Homo sapiens, HCT-116, 72 hours. The class given is cell-based. The protocol:
HCT116 cells (2000/well) were plated into 96-well tissue culture plates one day before compound treatment. Compounds at various concentrations were added to the cells. The cells were incubated for 72 hours at 37° C. in 5% CO2 incubator. MTT (3-[4,5-dimethylthiazol-2-yl]-2,5 diphenyl tetrazolium bromide, Sigma) was added at a final concentration of 0.5 mg/ml and incubated with the cells for 4 hours before one volume of solubilization buffer (50% N,N-dimethylformamide, 20% SDS, pH 4.7) was added onto the cultured cells. After overnight incubation, solubilized dye was quantified by colorimetric reading at […] using a reference at […] using an MR700 plate reader (Dynatech Laboratories Inc.). OD values were converted to cell numbers according to a standard growth curve of the relevant cell line. The concentration which reduces cell numbers to 50% of that of solvent treated cells is determined as MTT IC50. IC50 values for representative compounds are presented in the fourth column of Tables 7–10.

Experiment [1] concerns the target T1, cloned recombinant human HDAC-1 (Homo sapiens, UniProt Q13547).
T1 construct: made in house; host or cells: Baculovirus insect cell expression system
Description: Human HDAC-1 Assay 1: [3H]-acetylated histone deacetylase assay. The class given is biochemical. Particulars: Assay 1, unbracketed data; [3H]-acetylated histone substrate, 10 min at 37° C. The protocol: HDAC inhibitors were screened against a cloned recombinant human HDAC-1 enzyme expressed and purified from a Baculovirus insect cell expression system. For deacetylase assays, 20,000 cpm of the [^3H]-metabolically labeled acetylated histone substrate (M. Yoshida et al., J. Biol. Chem. 265(28): 17174–17179 (1990)) was incubated with 30 μg of the cloned recombinant hHDAC-1 for 10 minutes at 37° C. The reaction was stopped by adding acetic acid (0.04 M, final concentration) and HCl (250 mM, final concentration). […] For inhibition studies, the enzyme was preincubated with compounds at 4° C. for 30 minutes prior to initiation of the enzymatic assay. IC50 values for HDAC enzyme inhibitors were determined by performing dose response curves with individual compounds and determining the concentration of inhibitor producing fifty percent of the maximal inhibition. IC50 values for representative compounds assayed using this procedure are presented in the third column of Tables 7–10 (excepting bracketed data).

Experiment [2] relates to acetylated histone H-4 in T24 human bladder cancer cells. Briefly: Histone H4 acetylation in whole cells by immunoblots. The class given is cell-based. As to conditions: 16 h, read-out: H4 Ac (T24) EC50. Here is the method:
T24 human bladder cancer cells growing in culture were incubated with HDAC inhibitors for 16 h. Histones were extracted from the cells after the culture period as described by M. Yoshida et al. (J. Biol. Chem. 265(28): 17174–17179 (1990)). […] of total histone protein was loaded onto SDS/PAGE and transferred to nitrocellulose membranes. Membranes were probed with polyclonal antibodies specific for acetylated histone H-4 (Upstate Biotech Inc.), followed by horse radish peroxidase conjugated secondary antibodies (Sigma). Enhanced Chemiluminescence (ECL) (Amersham) detection was performed using Kodak films (Eastman Kodak). Acetylated H-4 signal was quantified by densitometry. Representative data are presented in the fifth column of Table 7–10. Data are presented as the concentration effective for […] the acetylated H-4 signal by 50% (EC50).

Like-named read-outs stand apart in the source and are kept apart here.

T1 sequence (Q13547 whole entry): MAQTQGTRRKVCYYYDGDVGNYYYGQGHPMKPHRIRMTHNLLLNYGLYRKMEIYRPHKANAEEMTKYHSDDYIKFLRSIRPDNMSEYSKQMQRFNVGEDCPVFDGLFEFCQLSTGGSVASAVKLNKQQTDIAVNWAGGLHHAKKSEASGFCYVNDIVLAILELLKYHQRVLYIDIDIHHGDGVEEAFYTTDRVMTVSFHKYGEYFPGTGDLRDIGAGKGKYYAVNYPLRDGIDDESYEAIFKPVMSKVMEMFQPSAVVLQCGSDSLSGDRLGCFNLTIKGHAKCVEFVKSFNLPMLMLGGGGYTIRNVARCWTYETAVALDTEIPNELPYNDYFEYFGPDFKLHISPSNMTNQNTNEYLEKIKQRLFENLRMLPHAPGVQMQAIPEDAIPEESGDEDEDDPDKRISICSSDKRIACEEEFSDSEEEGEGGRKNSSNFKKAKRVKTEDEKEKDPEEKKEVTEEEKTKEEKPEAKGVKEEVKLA

Take `Nc1ccccc1NC(=O)c1ccc(/C=C/C(=O)N(Cc2cccnc2)Cc2cccnc2)cc1` [Vo, N-(2-Amino-phenyl)-4-[2-(bis-pyridin-3-ylmethyl-carbamoyl)-vinyl]-benzamide]: the 50% inhibitory concentration (IC50) (in general, the concentration needed to halve the response being measured) in the experiment with HCT116 cells was 4 µM; in experiment [1], 15 µM.

As for `Nc1ccccc1NC(=O)c1ccc(C(=O)/C=C/c2c(Cl)cccc2Cl)cc1` [Ic, N-(2-Amino-phenyl)-4-[3-(2,6-dichloro-phenyl)-acryloyl]benzamide], the IC50 with HCT116 cells came out at 0.4 µM; in experiment [1], 3 µM. For the same compound, the half-maximal effective concentration (EC50) (commonly the concentration giving half of the maximal effect) in experiment [2] (code 9999 of the footnote) was above 25 µM.

`Nc1ccccc1NC(=O)c1ccc(/C=C/C(=O)NCCc2cccnc2)cc1` [Vf, N-(2-Amino-phenyl)-4-[2-(2-pyridin-3-yl-ethylcarbamoyl)-vinyl]-benzamide]: the IC50 with HCT116 cells stood at 0.3 µM; in experiment [1] it was 5 µM. In addition, the EC50 in experiment [2] (immunoblot densitometry) came out at 1 µM.

On to `Nc1ccccc1NC(=O)c1ccc(C(=O)/C=C/c2ccc(C(F)(F)F)cc2)cc1` [Ih, N-(2-Amino-phenyl)-4-[3-(4-trifluoromethyl-phenyl)-acryloyl]-benzamide], for which the IC50 was found to be 1 µM in the experiment with HCT116 cells and 5 µM in experiment [1]. Besides, the EC50 in experiment [2] (immunoblot densitometry) came out at 5 µM.

In the case of `COc1ccc(NC/C=C/c2ccc(C(=O)Nc3ccccc3N)cc2)cc1OC1CCCC1` [XVa, N-(2-Amino-phenyl)-4-[3-(3-cyclopentyloxy-4-methoxy-phenylamino)-propenyl]-benzamide], the results for the half-maximal inhibitory concentration (IC50) (in the experiment on HCT116 cells; in experiment [1]) were 1 µM and 2 µM, respectively. Besides, the EC50 in experiment [2] (immunoblot densitometry) was determined as 1 µM.

Regarding `COc1ccccc1C(=O)/C=C/c1ccc(C(=O)Nc2ccccc2N)cc1` [XXIVe, N-(2-Amino-phenyl)-4-[3-(2-methoxy-phenyl)-3-oxo-propenyl]-benzamide], the half-inhibitory concentration (IC50) in the experiment on HCT116 cells amounted to 0.8 µM; in experiment [1], 3 µM. Also, in experiment [2] (immunoblot densitometry), the EC50 was determined as 5 µM.

On to `Nc1ccccc1NC(=O)c1ccc(C(=O)/C=C/c2ccc(OC(F)F)c(OC3CC3)c2)cc1` [Ig, N-(2-Amino-phenyl)-4-[3-(3-cyclopropoxy-4-difluoromethoxy-phenyl)-acryloyl]-benzamide], for which the values for the IC50 (in the experiment on HCT116 cells; in experiment [1]) were 0.7 µM and 3 µM, respectively. In experiment [2] (code 9999 of the footnote), the EC50 is above 25 µM.

With `Nc1ccccc1NC(=O)c1ccc(CCC(=O)c2ccccc2)cc1` [XXVIIa, N-(2-Amino-phenyl)-4-(3-oxo-3-phenyl-propyl)-benzamide], the IC50 with HCT116 cells was 0.6 µM; in experiment [1], 2 µM. Also, the 50% effective concentration (EC50) in experiment [2] (immunoblot densitometry) is 2 µM.

On to `COc1cc(NC(=O)/C=C/c2ccc(C(=O)Nc3ccccc3N)cc2)cc(OC)c1OC` [Va, N-(2-Amino-phenyl)-4-[2-(3,4,5-trimethoxy-phenylcarbamoyl)-vinyl]-benzamide], for which the IC50 with HCT116 cells worked out at 3 µM; in experiment [1], 5 µM.

As for `Nc1ccccc1NC(=O)c1ccc(/C=C/C(=O)N[C@H]2c3ccccc3C[C@H]2O)cc1` [Vp, (−)-(1S,2R)-N-(2-Amino-phenyl)-4-[2-(2-hydroxy-indan-1-ylcarbamoyl)-vinyl]-benzamide], the half-maximal inhibitory concentration (IC50) was 2 µM with HCT116 cells and 13 µM in experiment [1].

Turning to `COc1cc(CNC(=O)/C=C/c2ccc(C(=O)Nc3ccccc3N)cc2)cc(OC)c1OC` [Vc, N-(2-Amino-phenyl)-4-[2-(3,4,5-trimethoxy-benzylcarbamoyl)-vinyl]-benzamide], the IC50 in the experiment on HCT116 cells came to 0.9 µM; in experiment [1] it was 3 µM. For the same compound, in experiment [2] (immunoblot densitometry), the EC50 was 2 µM.

`COc1ccc(NC/C=C/c2ccc(C(=O)Nc3ccccc3N)cc2)cc1OC` [XVi, N-(2-Amino-phenyl)-4-[3-(3,4-dimethoxy-phenylamino)-propenyl]-benzamide]: the half-inhibitory concentration (IC50) (with HCT116 cells; in experiment [1]) was 1 µM each time. Further, in experiment [2] (immunoblot densitometry), the EC50 was determined as 4 µM.

For `COc1cccc(C(=O)/C=C/c2ccc(C(=O)Nc3ccccc3N)cc2)c1` [XXIVd, N-(2-Amino-phenyl)-4-[3-(3-methoxy-phenyl)-3-oxo-propenyl]-benzamide], the IC50 in the experiment with HCT116 cells came out at 0.3 µM; in experiment [1] it was 4 µM. Moreover, the 50% effective concentration (EC50) in experiment [2] (immunoblot densitometry) was below 5 µM.

As for `COc1ccc(C(=O)/C=C/c2ccc(C(=O)Nc3ccccc3N)cc2)cc1` [XXIVc, N-(2-Amino-phenyl)-4-[3-(4-methoxy-phenyl)-3-oxo-propenyl]-benzamide], the concentration for half-maximal inhibition (IC50) was 0.6 µM with HCT116 cells and 13 µM in experiment [1]. For the same compound, the 50% effective concentration (EC50) in experiment [2] (immunoblot densitometry) was determined as 5 µM.

As to `Cc1ccc(S(=O)(=O)NC/C=C/c2ccc(C(=O)Nc3ccccc3N)cc2)cc1` [XVg, N-(2-Amino-phenyl)-4-[3-(4-tolyl-sulfonylamino)-propenyl]-benzamide], the 50% inhibitory concentration (IC50) is 5 µM in the experiment with HCT116 cells and 12 µM in experiment [1].

`Nc1ccccc1NC(=O)c1ccc(/C=C/C(=O)c2ccc(N3CCOCC3)cc2)cc1` [XXIVf, N-(2-Amino-phenyl)-4-[3-(4-morpholin-4-yl-phenyl)-3-oxo-propenyl]-benzamide]: the IC50 was 0.3 µM in the experiment on HCT116 cells and 10 µM in experiment [1]. Besides, the EC50 in experiment [2] (immunoblot densitometry) worked out at 3 µM.

Turning to `Nc1ccccc1NC(=O)c1ccc(C(=O)/C=C/c2ccc(Cl)c(Cl)c2)cc1` [Ia, N-(2-Amino-phenyl)-4-[3-(3,4-dichloro-phenyl)-acryloyl]-benzamide], the results for the 50% inhibitory concentration (IC50) (in the experiment with HCT116 cells; in experiment [1]) were 1 µM and 5 µM, respectively.

For the compound `COc1ccc(C2CCN(C(=O)/C=C/c3ccc(C(=O)Nc4ccccc4N)cc3)CC2)cc1OC` [Vk, N-(2-Amino-phenyl)-4-{3-[4-(3,4-dimethoxy-phenyl)-piperidin-1-yl]-3-oxo-propenyl}-benzamide], the half-inhibitory concentration (IC50) is 2 µM with HCT116 cells and 13 µM in experiment [1].

Turning to `Nc1ccccc1NC(=O)c1ccc(/C=C/C(=O)N2CCCC2c2cccnc2)cc1` (racemic) [Vl, (rac)-N-(2-Amino-phenyl)-4-[3-oxo-3-(2-pyridin-3-yl-pyrrolidin-1-yl)-propenyl]-benzamide], the results for the IC50 (with HCT116 cells; in experiment [1]) were 4 µM and 12 µM, respectively.

As for `COc1cc(OC)c(/C=C/C(=O)c2ccc(C(=O)Nc3ccccc3N)cc2)c(OC)c1` [If, N-(2-Amino-phenyl)-4-[3-(2,4,6-trimethoxy-phenyl)-acryloyl]-benzamide], the figures for the 50% inhibitory concentration (IC50) (with HCT116 cells; in experiment [1]) were 5 µM and 4 µM, respectively.

For `N#CCCN(Cc1cccnc1)C(=O)/C=C/c1ccc(C(=O)Nc2ccccc2N)cc1` [Vn, N-(2-Amino-phenyl)-4-{2-[(2-cyano-ethyl)-pyridin-3-ylmethyl-carbamoyl]-vinyl}-benzamide], the concentration for half-maximal inhibition (IC50) with HCT116 cells came out at 3 µM; in experiment [1], 7 µM.

As for `Nc1ccccc1NC(=O)c1ccc(/C=C/C(=O)OCc2cccnc2)cc1` [Vg, Pyridin-3-ylmethyl 3-[4-(2-amino-phenylcarbamoyl)-phenyl]-acrylic ester], the half-maximal inhibitory concentration (IC50) with HCT116 cells is 5 µM; in experiment [1], 10 µM.

For the compound `Nc1ccccc1NC(=O)c1ccc(/C=C/C(=O)N2CCOCC2)cc1` [Ve, N-(2-Amino-phenyl)-4-(3-morpholin-4-yl-3-oxo-propenyl)-benzamide], the concentration for half-maximal inhibition (IC50) in the experiment with HCT116 cells was 6 µM; in experiment [1], 20 µM.

As for `Nc1ccccc1NC(=O)c1ccc(CCCc2ccccc2)cc1` [XXIXa, N-(2-Amino-phenyl)-4-(3-phenyl-propyl)-benzamide], the figures for the IC50 (with HCT116 cells; in experiment [1]) were 0.6 µM and 2 µM, respectively.

Take `Nc1ccccc1NC(=O)c1ccc(C(=O)/C=C/c2ccc(Cl)cc2)cc1` [Ie, N-(2-Amino-phenyl)-4-[3-(4-chloro-phenyl)-acryloyl]-benzamide]: the 50% inhibitory concentration (IC50) in the experiment with HCT116 cells is 9 µM; in experiment [1] it was 6 µM.

In the case of `Nc1ccccc1NC(=O)c1ccc(/C=C/C(=O)N2CCN(c3ccccn3)CC2)cc1` [Vm, N-(2-Amino-phenyl)-4-[3-oxo-3-(4-pyridin-2-yl-piperazin-1-yl)-propenyl]-benzamide], the 50% inhibitory concentration (IC50) in the experiment on HCT116 cells came to 6 µM; in experiment [1], 11 µM.

In the case of `CC(C)(C)OC(=O)N(C/C=C/c1ccc(C(=O)Nc2ccccc2N)cc1)Cc1cccnc1` [XXIIh, t-Butyl {3-[4-(2-amino-phenylcarbamoyl)-phenyl]-ally}-pyridin-3-ylmethyl-carbamate], the IC50 (in the experiment on HCT116 cells; in experiment [1]) was 3 µM throughout.
